Measured values as given in article PMC7946679, “Selective cytotoxicity of epidithiodiketopiperazine DC1149B, produced by marine-derived Trichoderma lixii on the cancer cells adapted to glucose starvation” (Journal of Natural Medicines, 2019).
pIC50: −log10 of the molar value. ≈ marks a conversion by molar mass, not a printed value.

What was measured:
PANC-1 cells = assay: Oxygen consumption rate of PANC-1 cells (OCR Assay Kit); assay type: cell-based, human; conditions: PANC-1 cells in General Glucose Medium, phosphorescent probe, 180 min
Description: Oxygen consumption rate of PANC-1 cells was assayed using OCR Assay Kit (Cayman Chemical, Ann Arbor, MI, USA) as per the manufacturer’s instructions. Briefly, pre-cultured PANC-1 cells (8.0 × 10^4 cells) in the black, clear bottom 96-well plate (Corning Incorporated, NY, USA) were incubated with General Glucose Medium for 18 h at 37 °C. The cells were replenished with 140 µl of fresh medium, and the test compound was added. This was followed by adding the phosphorescent probe to measure the oxygen consumption. 100 µl of mineral oil was added in each well to restrict oxygen diffusion. The signals were measured by an Infinite M1000 microplate reader (Tecan Group Ltd., Mannedorf, Switzerland) using time-resolved mode at Ex 380 nm and Em 650 nm for 180 min with 1-min time interval. The linear regression was applied after subtracting the blank, and the oxygen consumption rate was indicated by the slope of each signal profile.

[1] = system: human pancreatic carcinoma PANC-1 cells; assay: Cytotoxicity (WST-8) against PANC-1 cells in Glucose Deficient or General Glucose Medium; assay type: cell-based; conditions: for pIC50: Homo sapiens; for pIC50 / IC50 Glucose (−): PANC-1 cells, 12 h with sample, WST-8; for S.I. (Selective index): IC50 General Glucose Medium versus IC50 Glucose Deficient Medium, PANC-1
Description: Human pancreatic carcinoma cell line PANC-1 was maintained in the DMEM supplemented with heat-inactivated 10% FBS and kanamycin (50 µg/ml) in a humidified atmosphere with 5% CO2 at 37 °C. To induce nutrient starvation, PANC-1 cells were cultured in the Glucose Deficient Medium [Basal Medium (25 mM HEPES buffer (pH 7.4) supplemented with 6.4 g/l NaCl, 700 mg/l NaHCO3, 400 mg/l KCl, 265 mg/l CaCl2·2H2O, 200 mg/l MgSO4·7H2O, 125 mg/l NaH2PO4, 0.1 mg/l Fe(NO3)·9H2O, 15 mg/l Phenol red, 10 mL/l MEM vitamin solution (X100) (GIBCO, Carlsbad, CA), 200 mmol/l L-glutamine solution (GIBCO, Carlsbad, CA), and 25 mg/l kanamycin) containing 10% dialyzed FBS]. The General Glucose Medium [Basal Medium supplemented with 10% FBS and […] glucose (final 25 mM)] was also used for control cells.
The bioassay was carried out according to a method described previously. Briefly, PANC-1 cells (1 × 10^4 cells/100 µl in 96 well plastic plate) were pre-incubated in the DMEM supplemented with 10% FBS for 24 h. The medium was then replaced with either the General Glucose Medium or Glucose Deficient Medium to induce cells adaption to the nutrient starvation. After 12-h incubation, the serially diluted samples were added, and the cells were incubated for an additional 12 h in a humidified atmosphere with 5% CO2 at 37 °C. The cell proliferation was detected using the WST-8 colorimetric reagent. The IC50 value was determined by linear interpolation from the growth inhibition curve. We assessed the selectivity of the cytotoxic activity (Selective Index, S.I.) based on the difference in the IC50 values obtained for experiments with General Glucose Media and Glucose Deficient Media.

[2] = system: rat adrenal pheochromocytoma cell line PC12; conditions: PC12 cells, cited from earlier work
[3] = system: human cervix epithelioid carcinoma HeLa cells; conditions: cited from earlier work
[4] = system: human leukemic Jurkat cell line; conditions: read-out: IC50 cytotoxicity Jurkat; cited from earlier work
mitochondrial Complex I = mitochondrial Complex I (Bos taurus, UniProt P03887+P17694+P42026); assay: biochemical; conditions: mitochondrial electron transport chain
GRP78 = assay: Western blotting, induction of GRP78 in PANC-1 cells; assay type: cell-based, human; conditions: PANC-1 in Glucose Deficient Medium, lowest test concentration 0.02 µM, 12 h, western blot
Description: (§1) PANC-1 cells (3 × 10^5 cells/2 ml in 6-well plastic plate) were pre-incubated in the DMEM supplement with 10% FBS for 24 h. The medium was then replaced with either General Glucose or Glucose Deficient Medium. […] Subsequently, the cells were rinsed with ice-cold PBS and lysed in the lysis buffer [50 mM Tris–HCl (pH 8.0) containing 150 mM NaCl, 5 mM EDTA, 1% glycerol, 1% NP-40, 1% protease inhibitor cocktail, and 1% phosphatase inhibitor cocktail]. The cell lysate was analyzed by SDS-PAGE and transferred onto PVDF membranes (GE Healthcare Life Sciences Buckinghamshire, UK). The membranes were then incubated with appropriate primary antibodies followed by HRP-conjugated secondary antibodies, and the immunopositive bands were visualized using an ECL kit (GE Healthcare Life Sciences). The luminescent signals were analyzed using an Image Quant LAS4010 Scanner (GE Healthcare Life Sciences).

[5] = target: mitochondrial Complex II/III (Bos taurus, UniProt P00125+P00157+P13272); assay: Mito Check Complex Activity Assay Kit, complex II/III; assay type: biochemical; conditions: mitochondrial electron transport chain
From the text: (§2) Dulbecco’s Modified Eagle’s medium (DMEM), WST-8 colorimetric reagent, and KCN were purchased from Nacalai Tesque, Inc. (Kyoto, Japan). Fetal bovine serum (FBS) and Dialyzed FBS were purchased from Equitech-Bio Inc. (Kerrville, TX, USA) and Thermo Fisher Scientific Inc. (Waltham, MA, USA), respectively. Anti-Akt, Anti-phosphorylated Akt, anti-GRP78, and anti-β-actin antibodies were obtained from Cell Signaling Technology, Inc. (Danvers, MA, USA). Horseradish peroxidase (HRP)-linked anti-rabbit IgG antibody (GE Healthcare Life Sciences, Buckinghamshire, UK) was used as secondary antibody. Mito Check Complex Activity Assay Kit (Cayman Chemical, Ann Arbor, MI, USA) was used to evaluate the effect of compound 1 on the mitochondrial complex I–V. Oxygen consumption of cells was measured by Oxygen Consumption Rate (OCR) Assay Kit (Cayman Chemical, Ann Arbor, MI, USA). Rotenone, thenoyltrifluoroacetone (TTFA), carbonyl cyanide m-chlorophenylhydrazone (CCCP), antimycin A, and oligomycin A were obtained from Tokyo Chemical Industry Co., LTD. […]
(§3) Antimycin A is a known inhibitor of complex III in the mitochondrial electron transport chain [17]. […] We also evaluated the effect of compound 1 on the oxygen consumption of PANC-1 cells cultured in the Glucose Deficient Medium.

mitochondrial Complex IV = mitochondrial Complex IV (Bos taurus, UniProt P00396+P68530); assay: Mito Check Complex Activity Assay Kit, complex IV; assay type: biochemical; conditions: mitochondrial electron transport chain
From the text: as §2, §3

mitochondrial Complex II = target: T1, mitochondrial Complex II (Bos taurus, UniProt P31039+P35720+Q3T189+Q95123); assay: Mito Check Complex Activity Assay Kit, complex II; assay type: biochemical; conditions: mitochondrial electron transport chain
T1 construct: purchased Cayman Chemical
T1 sequence (P31039 44-665): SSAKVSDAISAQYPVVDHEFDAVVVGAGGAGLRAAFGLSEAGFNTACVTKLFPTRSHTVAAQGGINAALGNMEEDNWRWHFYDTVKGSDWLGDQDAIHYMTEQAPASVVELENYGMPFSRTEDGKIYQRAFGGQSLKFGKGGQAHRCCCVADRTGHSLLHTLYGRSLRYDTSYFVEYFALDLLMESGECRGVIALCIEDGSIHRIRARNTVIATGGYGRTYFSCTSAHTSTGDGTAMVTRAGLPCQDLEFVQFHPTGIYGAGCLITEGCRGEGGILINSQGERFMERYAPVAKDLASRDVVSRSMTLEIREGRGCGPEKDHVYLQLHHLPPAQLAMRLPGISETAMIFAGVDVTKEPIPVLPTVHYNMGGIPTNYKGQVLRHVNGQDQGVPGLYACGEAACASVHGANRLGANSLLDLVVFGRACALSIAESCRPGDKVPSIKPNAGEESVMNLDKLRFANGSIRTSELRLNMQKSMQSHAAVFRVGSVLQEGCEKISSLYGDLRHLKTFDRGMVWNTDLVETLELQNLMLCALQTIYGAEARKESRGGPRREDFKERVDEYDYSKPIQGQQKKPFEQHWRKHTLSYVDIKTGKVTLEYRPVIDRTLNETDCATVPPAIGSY
T1 sequence (Q3T189 29-280): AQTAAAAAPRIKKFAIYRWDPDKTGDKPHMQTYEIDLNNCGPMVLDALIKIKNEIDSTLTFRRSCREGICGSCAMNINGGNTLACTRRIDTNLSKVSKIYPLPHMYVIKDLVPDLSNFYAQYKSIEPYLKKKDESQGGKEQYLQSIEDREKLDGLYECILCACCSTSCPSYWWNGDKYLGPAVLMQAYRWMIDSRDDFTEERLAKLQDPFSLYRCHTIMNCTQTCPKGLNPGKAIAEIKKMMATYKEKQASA
T1 sequence (P35720 30-169): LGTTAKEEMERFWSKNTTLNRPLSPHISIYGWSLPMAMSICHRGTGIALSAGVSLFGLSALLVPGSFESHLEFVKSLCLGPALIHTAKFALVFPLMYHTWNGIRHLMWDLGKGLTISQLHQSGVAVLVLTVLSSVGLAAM
T1 sequence (Q95123 56-158): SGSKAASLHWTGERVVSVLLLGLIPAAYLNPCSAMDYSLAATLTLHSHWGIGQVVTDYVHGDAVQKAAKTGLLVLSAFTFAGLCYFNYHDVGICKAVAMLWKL
From the text: as §2, §3

mitochondrial Complex V = mitochondrial Complex V (Bos taurus, UniProt P00829+P00847+P19483+P32876); assay: Mito Check Complex Activity Assay Kit, complex V; assay type: biochemical; conditions: mitochondrial electron transport chain
From the text: as §2, §3

[6] = system: Akt and phosphorylated Akt; assay: Western blotting, Akt signaling in PANC-1 cells; assay type: cell-based, human; conditions: PANC-1 in Glucose Deficient Medium, 0.02–0.3 µM, 12 h, western blot
Description: as §1

Compound | oxygen consumption of PANC-1 cells (PANC-1 cells) | pIC50 ([1]; Glucose Deficient Medium) | S.I. (Selective index) [1] | pIC50 ([1]; General Glucose Medium) | pIC50 (mitochondrial Complex II) | IC50 Glucose (−) ([1]; Glucose Deficient Medium) | also measured
CCCCCC[C@H]1C(=O)O[C@H](C)[C@H](NC(=O)c2cccc(NC=O)c2O)C(=O)O[C@@H](C)[C@@H]1OC(=O)CC(C)C [Antimycin A, reference compound] | inhibited the oxygen consumption | 9.52 | 960,000 |  |  |  | 
N#CC(C#N)=NNc1cccc(Cl)c1 [CCCP, carbonyl cyanide m-chlorophenylhydrazone] | showed the opposite effect to antimycin A |  |  |  |  |  | 
COc1ccc(C2SSC34CC5(O)C(Cl)C=CC(O)C5ON3C(=O)C2NC4=O)c(O)c1OC (stereo not drawn) [Compound 1, DC1149B] | inhibited the oxygen consumption | 7.70 |  | 3.15 | 4.72 |  | IC50 cytotoxic activity PC12 [2]: 21.9 µg/mL (≈ 42.4 µM); pIC50 ([2]; read-out: IC50 cytotoxic activity PC12): 4.37; IC50 cytotoxic activity HeLa [3]: 50.1 µg/mL (≈ 96.9 µM); pIC50 ([3]; read-out: IC50 cytotoxic activity HeLa): 4.01; pIC50 [4]: 5.29; pIC50 (mitochondrial Complex I): < 4.52; expression of GRP78 (GRP78): decreased the expression of GRP78 in the nutrient-starved cells to the basal level; pIC50 [5]: < 4.52; pIC50 (mitochondrial Complex IV): < 4.52; pIC50 (mitochondrial Complex V): < 4.52; levels of Akt and phosphorylated Akt [6]: reduced the levels of Akt and phosphorylated Akt in the nutrient-starved cells in a dose-dependent manner
COc1ccc2cc(NC(=O)C3=NO[C@H]4[C@H](O)C=C[C@@H](O)[C@@]4(O)C3)c(=O)oc2c1OC [Compound 2, trichodermamide A] |  | 3.57 | > 3.7 | < 3.00 |  | very weak | 
COc1ccc2cc(NC(=O)C34CC5(O)C(C=CC(O)C5ON3)S4)c(=O)oc2c1OC (stereo not drawn) [Compound 3, aspergillazine A] |  | < 3.00 |  | < 3.00 |  | very weak | 
O=C(CC(=O)C(F)(F)F)c1cccs1 [thenoyltrifluoroacetone, reference compound] |  |  |  |  | 4.19 |  | 
